In ChEMBL document CHEMBL3745622 (Bioorg Med Chem, 2016):
pIC50, pKi: −log10 of the molar value. Values belong to the compound of their own block, whether it stands above or below them.

How the values were obtained:
Tyrosinase [1] = biological target: T1, Tyrosinase (Agaricus bisporus, UniProt O42713)
T1 sequence (O42713 whole entry): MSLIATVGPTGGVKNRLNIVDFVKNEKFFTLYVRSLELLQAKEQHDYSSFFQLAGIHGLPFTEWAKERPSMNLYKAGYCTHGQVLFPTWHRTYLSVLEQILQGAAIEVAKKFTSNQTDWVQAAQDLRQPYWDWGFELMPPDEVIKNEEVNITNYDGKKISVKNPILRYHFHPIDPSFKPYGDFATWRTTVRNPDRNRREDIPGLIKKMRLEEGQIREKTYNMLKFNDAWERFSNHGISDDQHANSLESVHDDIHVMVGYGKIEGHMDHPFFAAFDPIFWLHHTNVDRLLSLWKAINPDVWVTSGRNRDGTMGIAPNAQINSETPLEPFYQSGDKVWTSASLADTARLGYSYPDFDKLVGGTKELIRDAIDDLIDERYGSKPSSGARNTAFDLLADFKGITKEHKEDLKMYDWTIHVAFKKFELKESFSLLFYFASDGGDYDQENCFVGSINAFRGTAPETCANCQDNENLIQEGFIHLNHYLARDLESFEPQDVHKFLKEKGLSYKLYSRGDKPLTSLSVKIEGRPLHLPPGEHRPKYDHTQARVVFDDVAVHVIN
Description: (§1) Inhibition of diphenolase activity of mushroom tyrosinase using L-DOPA as substrate preincubated with substrate for 10 mins followed by protein addition measured after 15 mins by spectrophotometric analysis

Tyrosinase [2] = biological target: T1, Tyrosinase; remark: listed apart in the source
Description: (§2) Inhibition of monophenolase activity of mushroom tyrosinase using L-tyrosine as substrate preincubated with substrate for 10 mins followed by protein addition measured after 15 mins by spectrophotometric analysis

Tyrosinase [3] = biological target: T1, Tyrosinase; remark: listed apart in the source
[4] = biological target: T2, Tyrosinase (Agaricus bisporus) (UniProt O42713)
T2 sequence (whole entry): T1 sequence (O42713 whole entry)
Description: as §1

[5] = biological target: T2, Tyrosinase (Agaricus bisporus); remark: listed apart in the source
Description: as §2

B16 [6] = assay: Potency index, ratio of kojic acid IC50 to compound IC50 for alpha-MSH-stimulated melanin production in mouse B16 cells; type: functional
Tyrosinase [7] = biological target: T1, Tyrosinase; remark: listed apart in the source
Description: Competitive inhibition of diphenolase activity of mushroom tyrosinase using L-DOPA as substrate preincubated for 5 to 60 mins by Lineweaver-Burk and Dixon plot analysis

Tyrosinase [8] = biological target: T1, Tyrosinase; assay: Time dependent inhibition of monophenolase activity of mushroom tyrosinase using L-tyrosine as substrate measured every 30 secs by Morrison and Walsh plot analysis; conditions: read-out: Ki(app)
B16 [9] = assay: cells; conditions: Mus musculus, B16, 72 h
Description: Inhibition of alpha-MSH-stimulated melanin production in mouse B16 cells after 72 hrs by microplate reader analysis

in vitro = conditions: mouse, B16 cells
Description: Cytotoxicity against mouse B16 cells assessed as cell viability after 72 hrs by MTT assay

SMILES: C/C(=C\Cc1ccc(-c2coc3cc(O)cc(O)c3c2=O)cc1O)CCCC(C)(C)O
- pIC50 (Tyrosinase [1]): < 3.70
- pIC50 (Tyrosinase [2]): < 3.70

SMILES: CC(C)=CCC/C(C)=C/Cc1c(O)ccc(-c2coc3cc(O)cc(O)c3c2=O)c1O
- pKi (Tyrosinase [3]): 4.30
- pIC50 (Tyrosinase [1]): < 3.70
- inhibition [4]: Dose-dependent effect
- pIC50 (Tyrosinase [2]): 4.04
- inhibition [5]: Dose-dependent effect

SMILES: COc1c2c(cc3c1C[C@H](c1ccc(O)cc1O)CO3)OC(C)(C)C=C2
- Ratio IC50 (B16 [6]): 200
- pKi (Tyrosinase [7]): 6.89
- pKi (Tyrosinase [8]): 8.83
- pKi (Tyrosinase [3]): 7.72
- pIC50 (Tyrosinase [1]): 6.30
- pIC50 (B16 [9]): 4.89
- inhibition [4]: Dose-dependent effect
- pIC50 (Tyrosinase [2]): 7.52
- CC50 at 72 h (in vitro): 104 µM
- inhibition [5]: Dose-dependent effect

SMILES: CC(C)=CCC/C(C)=C/Cc1c(O)ccc(C2(O)COc3cc(O)cc(O)c3C2=O)c1O (stereo unspecified)
- pKi (Tyrosinase [7]): 4.09
- pKi (Tyrosinase [3]): 5.12
- pIC50 (Tyrosinase [1]): 3.84
- inhibition [4]: Dose-dependent effect
- pIC50 (Tyrosinase [2]): 4.74
- inhibition [5]: Dose-dependent effect

SMILES: CC(C)=CCC/C(C)=C/Cc1c(O)ccc(C2COc3cc(O)cc(O)c3C2=O)c1O (stereo unspecified)
- pKi (Tyrosinase [7]): 4.12
- pKi (Tyrosinase [8]): 6.82
- pKi (Tyrosinase [3]): 5.74
- pIC50 (Tyrosinase [1]): 3.89
- pIC50 (B16 [9]): 4.37
- inhibition [4]: Dose-dependent effect
- pIC50 (Tyrosinase [2]): 5.54
- CC50 at 72 h (in vitro): 241 µM
- inhibition [5]: Dose-dependent effect

SMILES: CC(C)=CCC/C(C)=C/Cc1cc(-c2coc3cc(O)cc(O)c3c2=O)ccc1O
- pIC50 (Tyrosinase [1]): < 3.70
- pIC50 (Tyrosinase [2]): < 3.70

SMILES: CC(C)=CCC/C(C)=C/Cc1cc(C2Oc3cc(O)c(C)c(O)c3C(=O)C2=O)ccc1O (stereo unspecified)
- pIC50 (Tyrosinase [1]): < 3.70
- pIC50 (Tyrosinase [2]): < 3.70

SMILES: CC(C)=CCC/C(C)=C/COc1ccc(-c2coc3cc(O)cc(O)c3c2=O)cc1O
- pIC50 (Tyrosinase [1]): < 3.70
- pIC50 (Tyrosinase [2]): < 3.70

Continued, values first:

- pIC50 (Tyrosinase [1]): < 3.70
- pIC50 (Tyrosinase [2]): < 3.70
SMILES: CC(C)=CCc1c(O)ccc(C2COc3cc(O)c(CC=C(C)C)c(O)c3C2=O)c1O (stereo unspecified)

- pIC50 (Tyrosinase [1]): < 3.70
- pIC50 (Tyrosinase [2]): < 3.70
SMILES: CC(C)=CCC/C(C)=C/Cc1cc(C2CC(=O)c3c(cc(O)c(C)c3O)O2)ccc1O (stereo unspecified)

- pKi (Tyrosinase [7]): 4.25
- pIC50 (Tyrosinase [1]): 3.83
- pIC50 (Tyrosinase [2]): < 3.70
SMILES: COc1cc(O)ccc1C1COc2cc3c(c(O)c2C1=O)C=CC(C)(C)O3 (stereo unspecified)

- pIC50 (Tyrosinase [1]): < 3.70
- pIC50 (Tyrosinase [2]): < 3.70
SMILES: COc1c(C2COc3cc(O)c(CC=C(C)C)c(O)c3C2=O)ccc(O)c1CC=C(C)C (stereo unspecified)

- pIC50 (Tyrosinase [1]): < 3.70
- pIC50 (Tyrosinase [2]): < 3.70
SMILES: CC(C)=CCCCC1(C)C=Cc2cc(-c3coc4cc(O)cc(O)c4c3=O)ccc2O1 (stereo unspecified)

- pIC50 (Tyrosinase [1]): < 3.70
- pIC50 (Tyrosinase [2]): < 3.70
SMILES: COc1cc(C2COc3cc4c(c(OC)c3C2)C=CC(C)(C)O4)c(O)cc1O (stereo unspecified)
